# Results: PubChem BioAssay (NCI)
#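 The compound was tested at five concentrations on cells cultured in 96-well plates, with a 48-hour exposure period. At the TGI there is no net growth.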 Where a SMILES comes first, the peptide text is derived from it. [ ]: non-standard residue; d: D form. The star is where a group is joined. NMeAc5c = CNC1(C(=O)O)CCCC1; Boc = CC(C)(C)OC(=O)*; OBn = c1ccc(CO*)cc1
# System: MDA-N
# Assay: NCI tumour cell line growth inhibition, 48 h
row,SMILES,TGI
1,C1CN(c2nc3c(nnc4nc(N5CCOCC5)sc43)s2)CCO1,> 100 µM
2,COc1ccc(C2CC(c3c(O)ccc4ccccc34)=NN2C(C)=O)cc1OC (centres undefined),56.4 µM
3,COC(=O)C1SC(SC)=NC12c1ccccc1Nc1ccccc12 (centres undefined),70.6 µM
4,COc1ccc2cc(NC(=O)N/N=C\c3ccc([N+](=O)[O-])cc3)ccc2c1,> 100 µM
5,CCCN(C(=O)c1ccccc1)C(C#N)c1ccc(C(C#N)N(CCC)C(=O)c2ccccc2)cc1 (centres undefined),> 100 µM
6,C=CC1(C)CCC2C(=CCC3C2(C)CC(O)C(O)C3(C)COC2OC(C(=O)O)C(O)C(O)C2O)C1 (centres undefined) (tested in a mixture with another compound),> 100 µM
7,O=[N+]([O-])c1ccc2c(c1)/C(=N/N=C1c3ccccc3Cc3ccccc31)c1cc([N+](=O)[O-])cc([N+](=O)[O-])c1-2,9.38 µM
8,CN(C(=O)C(Cc1ccccc1)NC(=O)OC(C)(C)C)C1(C(=O)NC(Cc2ccccc2)C(=O)OCc2ccccc2)CCCC1 (stereo not drawn) (Boc-Phe-[NMeAc5c]-Phe-OBn; configuration not given here),65.4 µM
9,CC(C)=CCc1c2c(c3occ(-c4ccc(O)cc4)c(=O)c3c1O)CC(C(C)(C)O)O2 (centres undefined),49.1 µM
10,COc1ccc(-c2c(C#N)c(-c3ccc(C)cc3)n(NS(=O)(=O)c3ccc(C)cc3)c(=O)c2C#N)cc1,> 100 µM
11,CCOC(=O)C(SCCO)C(C(=O)OCC)n1cnc2c(=O)[nH]c(NC(C)=O)nc21 (centres undefined),> 100 µM
12,O=C(N/N=C(/COc1ccc(Cl)cc1)N=Cc1ccncc1)c1ccncc1,> 100 µM
13,COc1cc(C2c3cc4c(cc3OC(N3CCOCC3)C2C)OCO4)ccc1O (centres undefined),4.41 µM
14,Cc1ccc(N=NC(=Nc2ccccc2)c2ccc(N(CCC#N)CCC#N)cc2)cc1,> 100 µM
15,Cc1ccccc1C(=O)N1CCc2c([nH]c3ccccc23)C1,43.9 µM
16,NC(=O)NCCCC(NC(=O)OCCCCn1ccc(=O)[nH]c1=O)C(=O)O (centres undefined),> 100 µM
17,Clc1ccccc1C(SCc1ccccc1)SCc1ccccc1,> 100 µM
18,CC[C@@H]1CC[C@@H]2[C@H](CC[C@]3(C)[C@@H](OC(C)=O)CC[C@@H]23)[C@H]1COC(C)=O,62.2 µM
19,COC(=O)C([C@H](NC1(c2ccccc2)c2ccccc2-c2ccccc21)C(=O)OC)N(NC(=O)OCc1ccccc1)C(=O)OCc1ccccc1 (mixture of isomers),> 100 µM
20,COC(=O)c1cc(=O)nc2sc3cccc(C)c3n12,> 100 µM

# System: OVCAR-4 ovarian
# Assay: NCI tumour cell line growth inhibition, 48 h
row,SMILES,TGI
1,CCCCCCCCCCCCCCNC(=O)CCC(NC(=O)c1ccc(N(C)Cc2cnc3nc(N)nc(N)c3n2)cc1)C(=O)NCCCCCCCCCCCCCC (centres undefined),40.9 µM
2,COc1ccc(N/N=C2\CCOc3ccc(C)cc3C2=O)cc1,> 100 µM
3,NC(N)=N/N=C/c1c(-c2ccc(N)cc2)nc2sccn12,> 100 µM
4,CO/C(=N\N=C\c1ccc(C(F)(F)F)cc1)c1ccncc1,> 10 µM
5,CCCCCCc1cc2cc(-c3csc(CC#N)n3)c(=O)oc2cc1O,12.9 µM
6,COc1cc(Br)cc2cc(-c3cn4ccsc4n3)c(=O)oc12,> 100 µM
7,Nn1c(-c2ccccc2)nn(C(=O)c2ccccc2)c1=O,> 100 µM
8,O=c1[nH]c(Nc2cccc(CC(F)(F)F)c2)nc2nc[nH]c12,> 100 µM
9,COc1ccc(-c2cc(O)c3nc4ccccc4n3c2)cc1,> 100 µM
10,O=C1CC(NC(=O)C(F)(F)F)c2c(Br)sc(N3CCNCC3)c21 (centres undefined),> 100 µM
11,COc1cc2nc3n(c(=O)c2cc1OC)-c1ccc([N+](=O)[O-])cc1C3=O,63.9 µM
12,CC(=O)OC1CC(OC2C(O)CC(OC3C(O)CC(OC4CCC5(C)C(CCC6C5CC(O)C5(C)C(C7=CC(=O)OC7)CCC65O)C4)OC3C)OC2C)OC(C)C1OC1OC(CO)C(O)C(O)C1O (centres undefined),0.207 µM
13,ClCCN1CCC2(CC1)SSC1(CCN(CCCl)CC1)S2,> 100 µM
14,C1CN(c2nc3c(nnc4nc(N5CCOCC5)sc43)s2)CCO1,> 100 µM
15,COc1ccc(C2CC(c3c(O)ccc4ccccc34)=NN2C(C)=O)cc1OC (centres undefined),> 100 µM
16,COC(=O)C1SC(SC)=NC12c1ccccc1Nc1ccccc12 (centres undefined),> 100 µM
17,COc1ccc2cc(NC(=O)N/N=C\c3ccc([N+](=O)[O-])cc3)ccc2c1,5.74 µM

row,SMILES,TGI
1,CCCN(C(=O)c1ccccc1)C(C#N)c1ccc(C(C#N)N(CCC)C(=O)c2ccccc2)cc1 (centres undefined),66.7 µM
2,C=CC1(C)CCC2C(=CCC3C2(C)CC(O)C(O)C3(C)COC2OC(C(=O)O)C(O)C(O)C2O)C1 (centres undefined) (tested in a mixture with another compound),> 100 µM
3,O=[N+]([O-])c1ccc2c(c1)/C(=N/N=C1c3ccccc3Cc3ccccc31)c1cc([N+](=O)[O-])cc([N+](=O)[O-])c1-2,3.13 µM
4,CN(C(=O)C(Cc1ccccc1)NC(=O)OC(C)(C)C)C1(C(=O)NC(Cc2ccccc2)C(=O)OCc2ccccc2)CCCC1 (stereo not drawn) (Boc-Phe-[NMeAc5c]-Phe-OBn; configuration not given here),> 100 µM
5,CC(C)=CCc1c2c(c3occ(-c4ccc(O)cc4)c(=O)c3c1O)CC(C(C)(C)O)O2 (centres undefined),28.8 µM
6,COc1ccc(-c2c(C#N)c(-c3ccc(C)cc3)n(NS(=O)(=O)c3ccc(C)cc3)c(=O)c2C#N)cc1,> 100 µM
7,CCOC(=O)C(SCCO)C(C(=O)OCC)n1cnc2c(=O)[nH]c(NC(C)=O)nc21 (centres undefined),> 100 µM
8,O=C(N/N=C(/COc1ccc(Cl)cc1)N=Cc1ccncc1)c1ccncc1,> 100 µM
9,COc1cc(C2c3cc4c(cc3OC(N3CCOCC3)C2C)OCO4)ccc1O (centres undefined),> 100 µM
10,Cc1ccc(N=NC(=Nc2ccccc2)c2ccc(N(CCC#N)CCC#N)cc2)cc1,> 100 µM
11,Cc1ccccc1C(=O)N1CCc2c([nH]c3ccccc23)C1,74.9 µM
12,NC(=O)NCCCC(NC(=O)OCCCCn1ccc(=O)[nH]c1=O)C(=O)O (centres undefined),> 100 µM
13,Clc1ccccc1C(SCc1ccccc1)SCc1ccccc1,> 100 µM
14,CC[C@@H]1CC[C@@H]2[C@H](CC[C@]3(C)[C@@H](OC(C)=O)CC[C@@H]23)[C@H]1COC(C)=O,75 µM
15,COC(=O)C([C@H](NC1(c2ccccc2)c2ccccc2-c2ccccc21)C(=O)OC)N(NC(=O)OCc1ccccc1)C(=O)OCc1ccccc1 (mixture of isomers),> 100 µM
16,COC(=O)c1cc(=O)nc2sc3cccc(C)c3n12,> 100 µM

# System: RXF 393 renal
# Assay: NCI tumour cell line growth inhibition, 48 h
row,SMILES,TGI
1,CCCCCCCCCCCCCCNC(=O)CCC(NC(=O)c1ccc(N(C)Cc2cnc3nc(N)nc(N)c3n2)cc1)C(=O)NCCCCCCCCCCCCCC (centres undefined),34.2 µM
2,NC(N)=N/N=C/c1c(-c2ccc(N)cc2)nc2sccn12,39.9 µM
3,CO/C(=N\N=C\c1ccc(C(F)(F)F)cc1)c1ccncc1,> 10 µM
4,CCCCCCc1cc2cc(-c3csc(CC#N)n3)c(=O)oc2cc1O,> 89.2 µM
5,COc1cc(Br)cc2cc(-c3cn4ccsc4n3)c(=O)oc12,75.7 µM
6,Nn1c(-c2ccccc2)nn(C(=O)c2ccccc2)c1=O,> 100 µM
7,COc1ccc(-c2cc(O)c3nc4ccccc4n3c2)cc1,> 100 µM
8,O=C1CC(NC(=O)C(F)(F)F)c2c(Br)sc(N3CCNCC3)c21 (centres undefined),> 100 µM
9,COc1cc2nc3n(c(=O)c2cc1OC)-c1ccc([N+](=O)[O-])cc1C3=O,79.7 µM
10,C1CN(c2nc3c(nnc4nc(N5CCOCC5)sc43)s2)CCO1,> 100 µM
11,COc1ccc(C2CC(c3c(O)ccc4ccccc34)=NN2C(C)=O)cc1OC (centres undefined),84.2 µM
12,COC(=O)C1SC(SC)=NC12c1ccccc1Nc1ccccc12 (centres undefined),> 100 µM
13,COc1ccc2cc(NC(=O)N/N=C\c3ccc([N+](=O)[O-])cc3)ccc2c1,45.1 µM
14,CCCN(C(=O)c1ccccc1)C(C#N)c1ccc(C(C#N)N(CCC)C(=O)c2ccccc2)cc1 (centres undefined),> 100 µM
15,C=CC1(C)CCC2C(=CCC3C2(C)CC(O)C(O)C3(C)COC2OC(C(=O)O)C(O)C(O)C2O)C1 (centres undefined) (tested in a mixture with another compound),> 100 µM
16,O=[N+]([O-])c1ccc2c(c1)/C(=N/N=C1c3ccccc3Cc3ccccc31)c1cc([N+](=O)[O-])cc([N+](=O)[O-])c1-2,8.59 µM
17,CN(C(=O)C(Cc1ccccc1)NC(=O)OC(C)(C)C)C1(C(=O)NC(Cc2ccccc2)C(=O)OCc2ccccc2)CCCC1 (stereo not drawn) (Boc-Phe-[NMeAc5c]-Phe-OBn; configuration not given here),> 100 µM
18,CC(C)=CCc1c2c(c3occ(-c4ccc(O)cc4)c(=O)c3c1O)CC(C(C)(C)O)O2 (centres undefined),30.3 µM
19,COc1ccc(-c2c(C#N)c(-c3ccc(C)cc3)n(NS(=O)(=O)c3ccc(C)cc3)c(=O)c2C#N)cc1,> 100 µM
20,O=C(N/N=C(/COc1ccc(Cl)cc1)N=Cc1ccncc1)c1ccncc1,> 100 µM
21,COc1cc(C2c3cc4c(cc3OC(N3CCOCC3)C2C)OCO4)ccc1O (centres undefined),27.6 µM
22,Cc1ccc(N=NC(=Nc2ccccc2)c2ccc(N(CCC#N)CCC#N)cc2)cc1,80.1 µM
23,Cc1ccccc1C(=O)N1CCc2c([nH]c3ccccc23)C1,43.1 µM
24,NC(=O)NCCCC(NC(=O)OCCCCn1ccc(=O)[nH]c1=O)C(=O)O (centres undefined),> 100 µM
25,Clc1ccccc1C(SCc1ccccc1)SCc1ccccc1,> 100 µM
26,CC[C@@H]1CC[C@@H]2[C@H](CC[C@]3(C)[C@@H](OC(C)=O)CC[C@@H]23)[C@H]1COC(C)=O,45.9 µM
27,COC(=O)C([C@H](NC1(c2ccccc2)c2ccccc2-c2ccccc21)C(=O)OC)N(NC(=O)OCc1ccccc1)C(=O)OCc1ccccc1 (mixture of isomers),> 100 µM
28,COC(=O)c1cc(=O)nc2sc3cccc(C)c3n12,> 100 µM

# System: SF-268 CNS
# Assay: NCI tumour cell line growth inhibition, 48 h
row,SMILES,TGI
1,CCCCCCCCCCCCCCNC(=O)CCC(NC(=O)c1ccc(N(C)Cc2cnc3nc(N)nc(N)c3n2)cc1)C(=O)NCCCCCCCCCCCCCC (centres undefined),22.4 µM
2,COc1ccc(N/N=C2\CCOc3ccc(C)cc3C2=O)cc1,> 100 µM
3,NC(N)=N/N=C/c1c(-c2ccc(N)cc2)nc2sccn12,> 100 µM
4,CO/C(=N\N=C\c1ccc(C(F)(F)F)cc1)c1ccncc1,> 10 µM
5,CCCCCCc1cc2cc(-c3csc(CC#N)n3)c(=O)oc2cc1O,> 100 µM
6,COc1cc(Br)cc2cc(-c3cn4ccsc4n3)c(=O)oc12,> 100 µM
7,Nn1c(-c2ccccc2)nn(C(=O)c2ccccc2)c1=O,> 100 µM
8,O=c1[nH]c(Nc2cccc(CC(F)(F)F)c2)nc2nc[nH]c12,> 100 µM
